The results in this text go back to PMC5893132, “Selective inhibition of histamine-evoked Ca^2+ signals by compartmentalized cAMP in human bronchial airway smooth muscle cells” (Cell Calcium, 2018).

Type in all cases: cell-based, human
What all share (settings): PTX 100 ng·mL^−1, 24 h

For assay [1], the system named is histamine-evoked Ca^2+ signals in hBASMCs. Put plainly: Histamine-evoked Ca2+ signals in populations of fluo-4-loaded hBASMCs. The procedure: (§1) Two methods were used to measure [Ca^2+]i in populations of hBASMCs. For measurements using a FlexStation III plate-reader (Molecular Devices, Sunnyvale, CA, USA), hBASMCs were seeded into 96-well plates (10^4 cells per well). After about 4 days, when the cells were confluent, the medium was replaced with SMGM-2 without serum or growth factor supplements, and the cells were used after a further 24 h. This period in serum-free medium increased by about 2-fold the amplitude of the increases in [Ca^2+]i evoked by histamine (results not shown). Cells were washed with HEPES-buffered saline (HBS: 135 mM NaCl, 5.9 mM KCl, 1.2 mM MgCl2, 1.5 mM CaCl2, 11.6 mM HEPES, 11.5 mM D-glucose, pH 7.3), and loaded with fluo-4 by incubation with fluo-4-AM (2 μM) in HBS (100 μL per well) containing pluronic F127 (0.02%, v/v) and probenecid (2.5 mM). After 1 h at 20 °C, the medium was replaced with HBS (100 μL per well) containing probenecid (2.5 mM). After a further incubation at 20 °C for 1 h, the medium was replaced with HBS (60–80 μL per well) or nominally Ca^2+-free HBS, and the cells were used immediately for experiments at 20 °C. In some experiments, BAPTA (2.5 mM) was added to HBS during the recording; this reduced the free [Ca^2+] of the HBS to ∼120 nM without affecting the pH. Drug additions (20 μL at 4 or 5 times the final concentration) were added automatically. Fluorescence from fluo-4 (excitation 485 nm, emission 525 nm) was recorded at 1.44-s intervals using Softmax Pro 5.4 (Molecular Devices). Fluorescence was calibrated to [Ca^2+]i from: [Ca^2+]i=KDCa×(F−Fmin/Fmax−F) where, KDCa is the equilibrium dissociation constant of fluo-4 for Ca^2+ (345 nM), F is the recorded fluorescence, and Fmin and Fmax are the fluorescence values recorded after addition of triton-X-100 (0.1%, v/v) with either BAPTA (10 mM, Fmin) or CaCl2 (10 mM, Fmax). Although treatment with triton-X-100 releases fluo-4 from cells into the medium, the fluo-4 fluorescence is captured with the same efficiency whether it is trapped within cells or dispersed within the small volume of the wells (unpublished observations). Fmax was determined for each well at the end of an experiment, and the average value was used for each column of 8 wells. Fmin was determined from parallel wells on each plate.
For measurements of [Ca^2+]i using an FDSS 7000 FLIPR (Hamamatsu), hBASMCs were seeded into 384-well plates (8000 cells per well) in 20 μL of SMGM-2 containing 5% serum. After 24 h, the medium was replaced with 15 μL of serum-free SMGM-2, and after a further 6 h the cells were loaded with Ca^2+ indicator by addition of FLIPR calcium 4 assay kit (Molecular Devices) supplemented with probenecid (2.5 mM). The exact composition of this ‘no-wash’ indicator kit is not disclosed by the manufacturer, but it contains fluo-4-AM and components that reduce background fluorescence. The manufacture’s stock solution was diluted 10-fold into HBSS containing BSA (0.1%, w/v) and HEPES (20 mM); 5 μL of this solution was then added to each well (containing 15 μL of serum-free SMGM-2). After 2 h at 37 °C in humidified air containing 5% CO2, the plate was used for experiments at 20 °C. Most additions (5 μL) were prepared in HBSS supplemented with HEPES (20 mM) and BSA (0.1%, w/v). For more prolonged incubations, drugs were diluted in the initial loading medium (to avoid changes in dye-loading during the ‘no wash’ protocol). Fluorescence signals (excitation at 480 nm, emission at 540 nm) were calibrated to [Ca^2+]i after measurement of Fmin and Fmax uniquely for each well, using a KDCa = 345 nM.
All concentration-effect relationships were determined by addition of different drug concentrations to individual wells in the same multi-well plate, rather than by sequential additions to the same well. […]

Assay [2] deals with bradykinin-evoked Ca^2+ signals in hBASMCs. Put plainly: Bradykinin-evoked Ca2+ signals in populations of fluo-4-loaded hBASMCs. The procedure:
as §1, with “This period in serum-free medium increased by about 2-fold the amplitude of the increases in [Ca^2+]i evoked by histamine (results not shown).” left out, “In some experiments, BAPTA (2.5 mM) was added to HBS during the recording; this reduced the free [Ca^2+] of the HBS to ∼120 nM without affecting the pH.” left out, “Although treatment with triton-X-100 releases fluo-4 from cells into the medium, the fluo-4 fluorescence is captured with the same efficiency whether it is trapped within cells or dispersed within the small volume of the wells (unpublished observations).” left out
(§2) For measurements of [Ca^2+]i using an FDSS 7000 FLIPR (Hamamatsu), hBASMCs were seeded into 384-well plates (8000 cells per well) in 20 μL of SMGM-2 containing 5% serum. […] The exact composition of this ‘no-wash’ indicator kit is not disclosed by the manufacturer, but it contains fluo-4-AM and components that reduce background fluorescence. […]

In assay [3] the test system is LPA-evoked Ca^2+ signals in hBASMCs. The assay can be described thus: LPA-evoked Ca2+ signals in populations of fluo-4-loaded hBASMCs. The procedure: Two methods were used to measure [Ca^2+]i in populations of hBASMCs. For measurements using a FlexStation III plate-reader (Molecular Devices, Sunnyvale, CA, USA), hBASMCs were seeded into 96-well plates (10^4 cells per well). After about 4 days, when the cells were confluent, the medium was replaced with SMGM-2 without serum or growth factor supplements, and the cells were used after a further 24 h. […] Cells were washed with HEPES-buffered saline (HBS: 135 mM NaCl, 5.9 mM KCl, 1.2 mM MgCl2, 1.5 mM CaCl2, 11.6 mM HEPES, 11.5 mM D-glucose, pH 7.3), and loaded with fluo-4 by incubation with fluo-4-AM (2 μM) in HBS (100 μL per well) containing pluronic F127 (0.02%, v/v) and probenecid (2.5 mM). […] Fluorescence from fluo-4 (excitation 485 nm, emission 525 nm) was recorded at 1.44-s intervals using Softmax Pro 5.4 (Molecular Devices). Fluorescence was calibrated to [Ca^2+]i from: [Ca^2+]i=KDCa×(F−Fmin/Fmax−F) where, KDCa is the equilibrium dissociation constant of fluo-4 for Ca^2+ (345 nM), F is the recorded fluorescence, and Fmin and Fmax are the fluorescence values recorded after addition of triton-X-100 (0.1%, v/v) with either BAPTA (10 mM, Fmin) or CaCl2 (10 mM, Fmax). […] Fmax was determined for each well at the end of an experiment, and the average value was used for each column of 8 wells. Fmin was determined from parallel wells on each plate. […]

For assay [4], the system named is carbachol-evoked Ca^2+ signals in hBASMCs. Put plainly: Carbachol-evoked Ca2+ signals in populations of fluo-4-loaded hBASMCs. The procedure:
Two methods were used to measure [Ca^2+]i in populations of hBASMCs. For measurements using a FlexStation III plate-reader (Molecular Devices, Sunnyvale, CA, USA), hBASMCs were seeded into 96-well plates (10^4 cells per well). After about 4 days, when the cells were confluent, the medium was replaced with SMGM-2 without serum or growth factor supplements, and the cells were used after a further 24 h. […] Cells were washed with HEPES-buffered saline (HBS: 135 mM NaCl, 5.9 mM KCl, 1.2 mM MgCl2, 1.5 mM CaCl2, 11.6 mM HEPES, 11.5 mM D-glucose, pH 7.3), and loaded with fluo-4 by incubation with fluo-4-AM (2 μM) in HBS (100 μL per well) containing pluronic F127 (0.02%, v/v) and probenecid (2.5 mM). After 1 h at 20 °C, the medium was replaced with HBS (100 μL per well) containing probenecid (2.5 mM). After a further incubation at 20 °C for 1 h, the medium was replaced with HBS (60–80 μL per well) or nominally Ca^2+-free HBS, and the cells were used immediately for experiments at 20 °C. […] Drug additions (20 μL at 4 or 5 times the final concentration) were added automatically. Fluorescence from fluo-4 (excitation 485 nm, emission 525 nm) was recorded at 1.44-s intervals using Softmax Pro 5.4 (Molecular Devices). Fluorescence was calibrated to [Ca^2+]i from: [Ca^2+]i=KDCa×(F−Fmin/Fmax−F) where, KDCa is the equilibrium dissociation constant of fluo-4 for Ca^2+ (345 nM), F is the recorded fluorescence, and Fmin and Fmax are the fluorescence values recorded after addition of triton-X-100 (0.1%, v/v) with either BAPTA (10 mM, Fmin) or CaCl2 (10 mM, Fmax). […] Fmax was determined for each well at the end of an experiment, and the average value was used for each column of 8 wells. Fmin was determined from parallel wells on each plate.
as §2

As for Pertussis toxin [PTX], in assay [1], the “effect of pre-treatment on the Ca2+ signals evoked by histamine” value is reported as “had no effect”. In assay [2], the “effect of pre-treatment on the Ca2+ signals evoked by bradykinin” value is on record as “had no effect”. Besides, the “effect of pre-treatment on maximal amplitude of and sensitivity of the Ca2+ signals evoked by LPA” value in assay [3] is “significantly reduced”. Further, the “effect of pre-treatment on maximal amplitude of and sensitivity of the Ca2+ signals evoked by carbachol” value in assay [4] is reported as “significantly reduced”.
